Converted amounts (≈) assume the structure as drawn.
Key:
[1] = test system: cyclin D1, p27Kip1, p21Cip1/WAF1, EGFR, AKT, ERK2 in MDA-MB-231 cells; experiment: Western blot of cell cycle and growth signaling proteins; assay type: cell-based; conditions: MDA-MB-231, 20, 40 and 60 μM, 24 hours
Procedure: Western blot analysis: Cells were harvested and lysed for total protein extraction in a buffer containing 50 mM Tris-Cl pH 7.4, 150 mM NaCl and 2% NP-40 together with a protease inhibitor cocktail (Comp). Approximately 50-150 μg of protein extract was loaded on a 4-15% polyacrylamide gels (Bio-Rad, Hercules, Calif.), separated electrophoretically and blotted from the gel onto PVDF membrane. The membranes were then blocked with a blocking buffer (5% non-fat dry milk in 1×TBST, i.e. 20 mM Tris-HCl, pH 7.6 containing 0.8% NaCl and 0.1% Tween-20) at room temperature for 1 h. The membranes were incubated with the primary antibodies in blocking buffer, followed by incubation with HRP-labeled secondary antibodies. Immunoactivity was detected with horseradish peroxidase-conjugated secondary antibody and visualized by Enhanced Chemiluminescence (Pierce, Rockford, Ill.). Quantification of the results was performed using AlphaImager 2000 (Alpha Innotech, San Leandro, Calif.).
HNK slows cell cycle in breast cancer cell lines. The effects of HNK (10 μM or 30 μM HNK for 24 hours) on cell cycle were evaluated in MCF-7 and MDA-MB-231 cells. These doses of HNK are less than the LC50 for both cell lines. […] Expression of proteins involved in G1 cell-cycle regulation (massgue) was examined in MDA-MB-231 cells using Western analysis.
HNK inhibits growth signaling pathways. […]

SVR angiosarcoma = experiment: in vivo growth of SVR angiosarcoma; conditions: nude mice
Source text: FIG. 18 depicts the effect of honokiol on in vivo growth of SVR angiosarcoma in nude mice.
FIG. 18 illustrates the effect of honokiol on in vivo growth of SVR angiosarcoma in nude mice.

PARP in KBM-5 cells = experiment: PARP cleavage assay; assay type: cell-based, human; conditions: KBM-5, TNF 1 nM with honokiol (25 mM printed)
Procedure: (D) depicts that honokiol enhances TNF-induced cell death.
PARP cleavage assay. For detection of cleavage products of PARP, whole-cell extracts were prepared by subjecting honokiol-treated cells to lysis in lysis buffer (20 mM Tris, pH 7.4; 250 mM NaCl; 2 mM EDTA, pH 8.0; 0.1% TritonX-100; 0.01 mg/ml aprotinin; 0.005 mg/ml leupeptin; 0.4 mM PMSF; and 4 mM NaVO4). Lysates were spun at 14000 rpm for 10 min to remove insoluble material, resolved by 10% SDS PAGE, and probed with PARP antibodies.
By using caspase-activated PARP cleavage, it was shown that the enhanced cytotoxicity was due to apoptosis. TNF-induced PARP cleavage was enhanced in the honokiol-treated cells (FIG. 26C).

normal PBMNCs = experiment: cells; assay type: cell-based; conditions: Homo sapiens
Source text: Cells: Dexamethasone (Dex)-sensitive MM.1S (wild-type p53) and Dex-resistant MM.1R, RPMI 8226-Dox40 (doxorubicin resistant) and RPMI 8226-LR5 (melphalan resistant) human multiple myeloma (MM) cell lines were used. RPMI-8226 and U266 cells were obtained from the American Type Culture Collection (Rockville, Md.). SU-DHL-4 cells were also utilized. Fresh peripheral blood mononuclear cells (PBMNCs) were obtained from healthy subjects after informed consent. The PBMNC were separated from heparinized peripheral blood by Ficoll-Hipaque density sedimentation. BM specimens were acquired from patients with MM after obtaining informed consent and mononuclear cells were separated by Ficoll-Hipaque density sedimentation. […]
Reagents: Honokiol (HNK; Calbiochem, San Diego, Calif.) was dissolved in ethanol at 20 mg/ml stock solution. […] Absorbance readings at a wavelength of 450 nm were taken on a spectrophotometer (Molecular Devices Corp., Sunnyvale, Calif.).
HNK inhibits growth of MM cell lines. To identify the therapeutic potential of HNK, MM cell lines and normal PBMNCs were cultured at indicated concentration with HNK for 48 h, and growth was determined by calorimetric assays. […] FIGS. 6A and B show growth inhibition in MM cell lines by HNK as assessed by calorimetric assay after 48 h-culture. […]

## C=CCc1ccc(O)c(-c2ccc(O)c(CC=C)c2)c1 [HNK, Honokiol]
[1]
  expression of G1 cell-cycle regulation proteins: reduced the levels of cyclin D1, and upregulated expression of the cyclin-dependent kinase inhibitors, p27Kip1 and p21Cip1/WAF1
SVR angiosarcoma
  in vivo growth of SVR angiosarcoma: effective against tumors in vivo
  toxicity to the host animal: nontoxic to the host animal
PARP in KBM-5 cells
  TNF-induced PARP cleavage: enhanced
Normal PBMNCs
  IC50: 40 to 80 µg/mL (≈ 150 to 300 µM)
